# Measured values as given in ChEMBL document CHEMBL4130460, “Anti-inflammatory Activity of Eudesmane-Type Sesquiterpenoids from Salvia plebeia” (J Nat Prod, 2017).
# The source made the active and inactive calls. The calls are words filed in the database; no cut-off is given here.
# What was measured:
# RAW264.7 [1] = assay: Anti-inflammatory activity in mouse RAW264.7 cells assessed as reduction in LPS-induced NO production preincubated for 30 mins followed by LPS stimulation measured after 24 hrs by Griess assay; format: functional, cell-based
# RAW264.7 [2] = assay: Cytotoxicity against mouse RAW264.7 cells assessed as reduction in cell viability at 50 uM after 24 hrs by MTT assay; format: cell-based; settings: raw264.7, 24 h
# RAW264.7 [3] = assay: Inhibition of NF-kappaB in LPS-induced mouse RAW264.7 cells assessed as reduction in iNOS mRNA levels preincubated for 1 hr followed by LPS stimulation measured after 24 hrs by RT-PCR analysis; format: cell-based
# RAW264.7 [4] = assay: Inhibition of NF-kappaB in LPS-induced mouse RAW264.7 cells assessed as reduction in IL-1beta mRNA levels preincubated for 1 hr followed by LPS stimulation measured after 24 hrs by RT-PCR analysis; format: cell-based
# RAW264.7 [5] = assay: Inhibition of NF-kappaB in LPS-induced mouse RAW264.7 cells assessed as reduction in COX2 mRNA levels at 5 to 25 uM preincubated for 1 hr followed by LPS stimulation measured after 24 hrs by RT-PCR analysis; format: cell-based
# RAW264.7 [6] = assay: Inhibition of NF-kappaB in LPS-induced mouse RAW264.7 cells assessed as reduction in TNFalpha mRNA levels at 5 to 25 uM preincubated for 1 hr followed by LPS stimulation measured after 24 hrs by RT-PCR analysis; format: cell-based
# RAW264.7 [7] = assay: Inhibition of NF-kappaB in LPS-induced mouse RAW264.7 cells assessed as reduction in iNOS protein expression levels at 5 to 25 uM preincubated for 1 hr followed by LPS stimulation measured after 24 hrs by Western blot analysis; format: cell-based
# RAW264.7 [8] = assay: Inhibition of NF-kappaB in LPS-induced mouse RAW264.7 cells assessed as reduction in COX2 protein expression levels at 5 to 25 uM preincubated for 1 hr followed by LPS stimulation measured after 24 hrs by Western blot analysis; format: cell-based
# [9] = biological target: T1, NF-kappa-B inhibitor alpha (Mus musculus) (UniProt Q9Z1E3); assay: Inhibition of IkappaBalpha phosphorylation in cytosol of LPS-stimulated mouse RAW264.7 cells at 5 to 25 uM preincubated for 1 hr followed by LPS stimulation for 90 mins by Western blot method; format: cell-based
# T1 sequence (whole entry): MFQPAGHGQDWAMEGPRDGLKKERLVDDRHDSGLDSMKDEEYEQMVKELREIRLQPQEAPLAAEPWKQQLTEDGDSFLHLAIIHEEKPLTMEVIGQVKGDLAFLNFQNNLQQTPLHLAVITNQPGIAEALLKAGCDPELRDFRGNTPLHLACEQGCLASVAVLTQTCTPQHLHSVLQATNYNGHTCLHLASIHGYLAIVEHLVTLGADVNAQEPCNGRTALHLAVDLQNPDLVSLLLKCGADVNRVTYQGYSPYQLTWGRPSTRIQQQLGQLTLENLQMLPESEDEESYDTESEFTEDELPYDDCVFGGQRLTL
# [10] = biological target: T1, NF-kappa-B inhibitor alpha (Mus musculus); assay: Inhibition of IkappaBalpha phosphorylation in nucleus of LPS-stimulated mouse RAW264.7 cells at 5 to 25 uM preincubated for 1 hr followed by LPS stimulation for 90 mins by Western blot method; format: cell-based
# [11] = biological target: Transcription factor p65 (Mus musculus) (UniProt Q04207); assay: Inhibition of NF-kappaB p65 phosphorylation in cytosol of LPS-stimulated mouse RAW264.7 cells at 5 to 25 uM preincubated for 1 hr followed by LPS stimulation for 90 mins by Western blot method; format: cell-based
# [12] = biological target: Transcription factor p65 (Mus musculus) (UniProt Q04207); assay: Inhibition of NF-kappaB p65 phosphorylation in nucleus of LPS-stimulated mouse RAW264.7 cells at 5 to 25 uM preincubated for 1 hr followed by LPS stimulation for 90 mins by Western blot method; format: cell-based
# [13] = biological target: MAP kinase p38 (Mus musculus) (UniProt P47811+O08911+Q9WUI1+Q9Z1B7); assay: Inhibition of MAPK p38 phosphorylation in LPS-stimulated mouse RAW264.7 cells at 5 to 25 uM preincubated for 1 hr followed by LPS stimulation for 30 mins by Western blot method; format: cell-based
# RAW264.7 [14] = assay: Inhibition of ERK phosphorylation in LPS-stimulated mouse RAW264.7 cells at 5 to 25 uM preincubated for 1 hr followed by LPS stimulation for 30 mins by Western blot method; format: cell-based
# RAW264.7 [15] = assay: Inhibition of JNK phosphorylation in LPS-stimulated mouse RAW264.7 cells at 5 to 25 uM preincubated for 1 hr followed by LPS stimulation for 30 mins by Western blot method; format: cell-based
# [16] = biological target: T1, NF-kappa-B inhibitor alpha (Mus musculus); assay: Inhibition of IkappaBalpha phosphorylation in cytosol of LPS-stimulated mouse RAW264.7 cells preincubated for 1 hr followed by LPS stimulation for 90 mins by Western blot method; format: cell-based
# [17] = biological target: T1, NF-kappa-B inhibitor alpha (Mus musculus); assay: Inhibition of IkappaBalpha phosphorylation in nucleus of LPS-stimulated mouse RAW264.7 cells preincubated for 1 hr followed by LPS stimulation for 90 mins by Western blot method; format: cell-based
# [18] = biological target: Transcription factor p65 (Mus musculus) (UniProt Q04207); assay: Inhibition of NF-kappaB p65 phosphorylation in cytosol of LPS-stimulated mouse RAW264.7 cells preincubated for 1 hr followed by LPS stimulation for 90 mins by Western blot method; format: cell-based
# [19] = biological target: Transcription factor p65 (Mus musculus) (UniProt Q04207); assay: Inhibition of NF-kappaB p65 phosphorylation in nucleus of LPS-stimulated mouse RAW264.7 cells preincubated for 1 hr followed by LPS stimulation for 90 mins by Western blot method; format: cell-based
# Transcription factor p65 (Mus musculus), sequence (Q04207 whole entry): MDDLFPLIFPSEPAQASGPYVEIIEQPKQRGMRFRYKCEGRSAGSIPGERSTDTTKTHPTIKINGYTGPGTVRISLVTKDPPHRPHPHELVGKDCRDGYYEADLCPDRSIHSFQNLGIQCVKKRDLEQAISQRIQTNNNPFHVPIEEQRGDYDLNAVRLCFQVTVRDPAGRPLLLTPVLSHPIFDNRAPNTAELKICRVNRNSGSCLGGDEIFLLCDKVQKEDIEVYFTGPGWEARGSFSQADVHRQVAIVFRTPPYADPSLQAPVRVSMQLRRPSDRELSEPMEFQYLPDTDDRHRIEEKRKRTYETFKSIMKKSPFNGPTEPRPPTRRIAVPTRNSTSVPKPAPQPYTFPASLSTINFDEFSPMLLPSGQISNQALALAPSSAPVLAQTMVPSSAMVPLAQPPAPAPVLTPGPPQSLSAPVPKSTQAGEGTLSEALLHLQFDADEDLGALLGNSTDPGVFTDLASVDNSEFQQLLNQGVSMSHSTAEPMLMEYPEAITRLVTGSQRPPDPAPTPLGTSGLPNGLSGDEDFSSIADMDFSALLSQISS
SMILES,IC50 (RAW264.7 [1]) [µM],Activity (RAW264.7 [2]),other results
CC1=C2C[C@@H]3[C@@](C)(C[C@]2(O)OC1=O)C(=O)C=C[C@@]3(C)O,57,Non-Toxic,–
CC(=O)O[C@H]1C[C@@H](O)[C@@]2(C)C=C3OC(=O)C(C)=C3C[C@@H]2[C@H]1C,30,Non-Toxic,–
CC(=O)O[C@@H]1C(=O)C=C(C)[C@@H]2CC3=C(C)C(=O)O[C@@]3(O)C[C@@]12C,> 100,Non-Toxic,–
CO[C@@]12C[C@]3(C)C=CC(=O)[C@H](C)[C@H]3CC1=C(C)C(=O)O2,31.2,Non-Toxic,inhibition (RAW264.7 [3]): Dose-dependent effect; inhibition (RAW264.7 [4]): Dose-dependent effect; inhibition (RAW264.7 [5]): inactive; inhibition (RAW264.7 [6]): inactive; inhibition (RAW264.7 [7]): Active; inhibition (RAW264.7 [8]): inactive; inhibition [9]: inactive; inhibition [10]: inactive; inhibition [11]: inactive; inhibition [12]: inactive; inhibition [13]: inactive; inhibition (RAW264.7 [14]): inactive; inhibition (RAW264.7 [15]): inactive
CC1=C2C[C@@H]3[C@@H](C)[C@@H](O)C[C@@H](O)[C@@]3(C)C=C2OC1=O,> 100,Non-Toxic,–
CC1=C[C@@H](O)[C@@H](O)[C@@]2(C)C[C@@]3(O)OC(=O)C(C)=C3C[C@H]12,> 100,Non-Toxic,–
CC1=C2C[C@H]3[C@](C)(C=C2OC1=O)[C@H](O)CC[C@]3(C)O,> 100,Non-Toxic,–
CO[C@@]12C[C@]3(C)[C@H](O)C[C@H](O)[C@H](C)[C@H]3CC1=C(C)C(=O)O2,> 100,Non-Toxic,–
O=c1cc(-c2ccc(O)c(O)c2)oc2cc(O)cc(O)c12 [LUTEOLIN],5.6,–,–
CC(=O)O[C@H]1C[C@@H](O)[C@@]2(C)C[C@@]3(O)OC(=O)C(C)=C3C[C@@H]2[C@H]1C,> 100,Non-Toxic,–
CC(=O)O[C@H]1C[C@@H](O)[C@@]2(C)C[C@@]3(O)OC(=O)C(C)=C3[C@H](O)[C@@H]2[C@H]1C,> 100,Non-Toxic,–
CC(=O)OC1=C[C@@](C)(O)[C@@H]2CC3=C(C)C(=O)O[C@@]3(O)C[C@@]2(C)C1=O,> 100,Non-Toxic,–
CC1=C2C[C@@H]3[C@@H](C)C(=O)C=C[C@@]3(C)C[C@H]2OC1=O,70.2,Non-Toxic,–
CO[C@]12C[C@]3(C)C=CC(=O)[C@H](C)[C@H]3CC1=C(C)C(=O)O2,17.9,Non-Toxic,inhibition (RAW264.7 [3]): Dose-dependent effect; inhibition (RAW264.7 [4]): Dose-dependent effect; inhibition (RAW264.7 [5]): inactive; inhibition (RAW264.7 [6]): inactive; inhibition (RAW264.7 [7]): Active; inhibition (RAW264.7 [8]): inactive; inhibition [16]: Dose-dependent effect; inhibition [17]: Dose-dependent effect; inhibition [18]: Dose-dependent effect; inhibition [19]: Dose-dependent effect; inhibition [13]: inactive; inhibition (RAW264.7 [14]): inactive; inhibition (RAW264.7 [15]): inactive
CC1=C2C[C@H]3[C@](C)(C=C2OC1=O)[C@@H](O)CC[C@]3(C)O,> 100,Non-Toxic,–
CO[C@]12C[C@@]3(C)[C@H](OC(C)=O)C(=O)C=C(C)[C@@H]3CC1=C(C)C(=O)O2,> 100,Non-Toxic,–
CC1=C2CC3=C(C)[C@@H](O)C[C@@H](O)[C@@]3(C)C[C@@]2(O)OC1=O,> 100,Non-Toxic,–
CC1=C2C[C@@H]3[C@@H](C)[C@@H](O)C[C@@H](O)[C@@]3(C)C[C@@]2(O)OC1=O,> 100,Non-Toxic,–
CO[C@@]12C[C@]3(C)[C@H](O)C[C@H](OC(C)=O)[C@H](C)[C@H]3CC1=C(C)C(=O)O2,19.9,Non-Toxic,–
CC1=C2C[C@@H]3[C@](C)(O)[C@@H](O)C[C@@H](O)[C@@]3(C)C=C2OC1=O,> 100,Non-Toxic,–
CC1=C2C[C@@H]3[C@@H](C)C(=O)C=C[C@@]3(C)C[C@@]2(O)OC1=O,68.9,Non-Toxic,–
